Earlier results in patent publication US20050272741A1, “Novel methods of treatment for Fontan patients with protein losing enteropathy” (priority 2004, published 2005).

System: mesenteric bed
Conditions: pretreatment with Viagra, high dose Norepinephrine

CCCc1nn(C)c2c(=O)[nH]c(-c3cc(S(=O)(=O)N4CCN(C)CC4)ccc3OCC)nc12 [Viagra, Sildenafil]
Mesenteric relaxation / constriction of the mesenteric bed: even high dose Norepinephrine fails to constrict the mesenteric bed
